Results from article PMC12591170, “Glabridin‐Gold(I) Complex as a Novel Immunomodulatory Agent Targeting TrxR and MAPK Pathways for Synergistic Enhancement of Antitumor Immunity” (Advanced Science, 2025).

Key:
HepG2 cells [1] = assay: MTT antiproliferative assay, HepG2; format: cell-based, human
Protocol: (§1) All cells were incubated at 37 °C by DMEM complete medium (containing 1% penicillin−streptomycin and 12% FBS) in 5% CO2 incubator. 2–5 × 10^3 cells were cultured in 96‐well plates and each well contained 100 µL complete medium. OXA was dissolved in water, and all other complexes were dissolved in DMF. After cells adhered in the wells, different concentrations of complexes were diluted in 100 µL complete medium and added in the wells. The final volume in the each well was 200 µL and the content of DMF was maximum 0.5%. After 72 h incubation, the antiproliferative activity was tested by MTT assay.

Hepa1-6 cells = assay: MTT antiproliferative assay, Hepa1-6; format: cell-based; conditions: Hepa 1-6 cells
Protocol: as §1

TrxR = biological target: T1, TrxR (Homo sapiens, UniProt Q16881); assay: CETSA and ITDR assay, TrxR; format: binding; conditions: HepG2 proteins, 8 µM, ITDR at 78 °C
T1 construct: endogenous in cells; host or cells: HepG2
T1 sequence (Q16881 151-649 limits assumed): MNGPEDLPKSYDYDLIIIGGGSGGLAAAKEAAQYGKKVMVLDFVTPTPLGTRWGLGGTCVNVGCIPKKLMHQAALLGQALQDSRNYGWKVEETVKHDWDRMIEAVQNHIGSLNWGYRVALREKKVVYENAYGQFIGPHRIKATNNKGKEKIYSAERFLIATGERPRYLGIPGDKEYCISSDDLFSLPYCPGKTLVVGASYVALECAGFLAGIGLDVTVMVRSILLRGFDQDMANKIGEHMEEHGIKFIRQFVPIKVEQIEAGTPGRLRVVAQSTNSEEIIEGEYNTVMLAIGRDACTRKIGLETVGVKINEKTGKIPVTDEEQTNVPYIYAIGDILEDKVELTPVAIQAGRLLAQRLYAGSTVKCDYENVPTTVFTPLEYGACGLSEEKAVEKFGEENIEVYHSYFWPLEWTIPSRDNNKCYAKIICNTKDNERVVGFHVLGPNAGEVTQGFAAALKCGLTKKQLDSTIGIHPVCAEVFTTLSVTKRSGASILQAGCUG
Protocol: The treated HepG2 cells in 10 cm culture dishes were collected and washed with PBS. The collected cells were repeatedly frozen and thawed for 3 times by liquid nitrogen and 37 °C water bath. Then, proteins were isolated by centrifugation. The isolated proteins were divided into different tubes and incubated with same concentration of 6d at different temperature. Western blot was applied for CETSA by analyzing the band intensity of different temperature groups.
The temperature, which results in significant band differences between 6d and control group, was selected for ITDR assay. The isolated proteins were divided into different tubes and incubated with different concentration of 6d at same temperature. The binding between 6d and target protein was assessed by analyzing the band intensity of different concentration groups.

HepG2 cells [2] = assay: ROS levels assay (DHE, DCFH-DA); format: cell-based, human; conditions: HepG2, 6 h, DHE and DCFH-DA probes
Protocol: HepG2 cells were seeded in 12‐well plate (5 × 10^4 cells per well). 4 mM N‐acetylcysteine (NAC) was applied for 1 h pretreatment. DMF (0.1%), AF (4 µM) or different concentrations of 6d (2, 4, 8 µM) were added in the wells for 6 h incubation. 10 µM DHE or DCFH‐DA (dissolved in DMEM) probes were applied for 30 min staining. The cells were photographed by the fluorescence microscopy after washing twice.

HepG2 cells [3] = assay: MMP measurement (JC-1); format: cell-based, human; conditions: HepG2, 24 h
Protocol: 12‐well plate was applied to incubate HepG2 cells (5 × 10^4 cells per wells). After overnight, cells were treated with DMF (0.1%), AF (4 µM) or different concentrations of 6d (2, 4, 8 µM) for 24 h. 2.5 µg mL^−1 JC‐1 probe was added in the wells after removing original liquid. 15 min later, PBS was applied to wash cells for two times. Then, the fluorescence images were captured by the fluorescence microscopy.

HepG2 cells [4] = assay: Apoptosis assay (annexin V-EGFP/PI); format: cell-based, human; conditions: HepG2, 24 h
Protocol: 4 × 10^5 HepG2 cells was seeded in 6‐well plates for overnight incubation. DMF (0.1%), AF (4 µM) or different concentrations of 6d (2, 4, 8 µM) were added in the wells for 24 h. PBS was applied to wash cells for two times, and cells were collected subsequently. After washing twice by PBS, Annexin V‐EGFP/PI Apoptosis Detection kit was used to dye the cells. Then, the apoptosis ratio was analyzed by flow cytometer.

HIF-1α = assay: Western blot of HIF-1α in HepG2; format: cell-based, human; conditions: HepG2, 24 h
Protocol: HepG2 cells were incubated in 6 cm culture dishes and treated with different complexes. The treated cells were lysed with lysis buffer (RIPA:PMSF:phosphatase inhibitor:protease inhibitor = 100:1:1:1). The lysed cells were further broken by sonication, and proteins were isolated by centrifugation. The protein concentrations were detected by BCA assay. 10% SDS PAGE gel was usually applied to separate the different kDa of proteins, and more than 200 kDa of proteins were separated using 8% SDS PAGE gel. After seperation, proteins were transferred onto polyvinylidene difluoride (PVDF) membranes. The target proteins were labeled by various specific primary antibodies at 4 °C overnight. Then, the membranes were treated with anti‐rabbit or anti‐mouse secondary antibody for 2 h. Tris buffered saline with tween 20 (TBST) was applied to wash the membranes after each operation above. The target proteins’ bands were detected by the enhanced chemiluminescence (ECL) procedure.

[5] = test system: MAPK pathway (phosphorylated MEK1/2 and ERK1/2); assay: In vivo MAPK pathway in tumor tissue; parameters: species or system C57BL/6 mice; conditions: western blot, day 13
PD-L1 = assay: In vivo PD-L1 expression in tumor tissue; parameters: species or system C57BL/6 mice; conditions: western blot, 13 days of treatment
[6] = test system: immune cells in Hepa1-6 tumor and spleen tissue; assay: In vivo immune cell and marker analysis (flow cytometry, immunofluorescence, immunohistochemistry); parameters: species or system C57BL/6 mice
Protocol: All mice were 6–8 weeks old males and procured from Hangzhou Medical College, located in Hangzhou, China. […] 2 × 10^6 Hepa1‐6 cells in 100 µL DMEM were subcutaneously seeded in underarms of C57BL/6 mice. […] Meanwhile, the mice weights and tumor volume were recorded, and the calculation formula of tumor volume was Volume = Width^2 × Length/2. After 13 days, all mice were sacrificed for collection of tumors, hearts, livers, spleens, lungs and kidneys. Collagenase IV (1 mg mL^−1) and DNase I (1 µg mL^−1) were applied to digest a part of the tumor tissue into cell suspension, and lysis buffer was used to remove red blood cells. The prepared cells above were stained with antibodies (anti‐CD3e‐FITC, and anti‐CD8a‐PE; anti‐CD11c‐APC, anti‐CD80‐PE, and anti‐CD86‐FITC; anti‐CD45‐Percp, anti‐CD11b‐APC, and anti‐Ly‐6G/Ly‐6C(Gr‐1)‐FITC; anti‐CD11b‐APC, anti‐CD206‐PE, and CD86‐FITC). CD3^+CD8^+ T cells, CD80^+CD86^+ DCs, CD11b^+Gr‐1^+ MDSCs, CD206^−CD86^+ M1‐type macrophages and CD206^+CD86^− M2‐type macrophages were analyzed by flow cytometry. Then, another part of tumor tissues were fixed with 4% paraformaldehyde, embedded in paraffin, cut into slices and stained with antibodies for immunofluorescence and immunohistochemistry analysis.

[7] = mouse
[8] = mouse, in vivo
[9] = flow cytometry and immunofluorescence

CCn1ccn(CCCCCOc2ccc([C@@H]3COc4c(ccc5c4C=CC(C)(C)O5)C3)c(OCCCCCn3ccn(CC)[c]3=[Au][Br])c2)[c]1=[Au][Br] [6d]
IC50 (HepG2 cells [1]; 72 h MTT assay, Mean ± SD): 2540 ± 130 nM
times more toxic than GLA (HepG2 cells [1]; HepG2 cells): 16 times
times more toxic than GLA (Hepa1-6 cells): 34 times
binding to TrxR (CETSA, ITDR) (TrxR): significant binding
ROS level (HepG2 cells [2]): elevated ROS level
mitochondrial membrane potential (MMP) (HepG2 cells [3]): decreased MMP
apoptosis (HepG2 cells [4]): apoptosis was observed
HIF-1α expression (western blot) (HIF-1α): significantly inhibited
MAPK pathway activation (phosphorylation of MEK1/2 and ERK1/2) in tumor tissue [5]: significantly inhibited
PD-L1 expression in tumor tissue (PD-L1): inhibited
DC maturation in spleen and tumor tissues [6, 9]: induced DC maturation
macrophage polarization in tumor [6, 9]: significantly promoted M1‐type macrophage polarization
T lymphocyte infiltration in tumor ([6]; flow cytometry and immunohistochemistry): promoted T lymphocyte infiltration
Arg-1 expression in tumor tissue ([6]; immunofluorescence): downregulation
CRT exposure in tumor tissue ([6]; immunofluorescence): promoted CRT exposure
GzmB expression in tumor tissue ([6]; immunofluorescence, OXA vs model group, 6d vs OXA group): significantly upregulated GzmB expression
MDSC infiltration in tumor ([6]; vs model group, 13 days): reducing the infiltration
Treg infiltration in tumor (Foxp3) ([6]; vs model group, 13 days): reducing the infiltration
metabolic stability in whole blood ([7]; 2 h): high metabolic stability
T1/2 ([7]; blood): ∞
Percent Remaining (%) (Mean, n=2) 0 min ([7]; blood, 0 h): 100%
Percent Remaining (%) (Mean, n=2) 5 min ([7]; blood, 5 min): 98.8%
Percent Remaining (%) (Mean, n=2) 15 min ([7]; blood, 0.25 h): 107%
Percent Remaining (%) (Mean, n=2) 30 min ([7]; blood, 0.5 h): 103%
Percent Remaining (%) (Mean, n=2) 60 min ([7]; blood, 1 h): 103%
Percent Remaining (%) (Mean, n=2) 120 min ([7]; blood, 2 h): 108%
safe dose [8]: 5 mg/kg
